Results as given in ChEMBL document CHEMBL2390917, “Synthesis and biological evaluation of 2-(5-methyl-4-phenyl-2-oxopyrrolidin-1-yl)-acetamide stereoisomers as novel positive allosteric modulators of sigma-1 receptor” (Bioorg Med Chem, 2013).
The source made the active and inactive calls. The calls are words filed in the database; no cut-off is given here.

Columns and labels:
[1] = molecular target: Endothelin-1 receptor (Homo sapiens) (UniProt P25101); assay: Binding affinity to human ETA receptor at 10 uM by radioligand displacement assay relative to control
[2] = molecular target: Muscarinic acetylcholine receptor M3 (Homo sapiens) (UniProt P20309); assay: Binding affinity to human muscarinic M3 receptor at 10 uM by radioligand displacement assay relative to control
Chain of Muscarinic acetylcholine receptor M3 (Homo sapiens) (P20309 whole entry, looked up): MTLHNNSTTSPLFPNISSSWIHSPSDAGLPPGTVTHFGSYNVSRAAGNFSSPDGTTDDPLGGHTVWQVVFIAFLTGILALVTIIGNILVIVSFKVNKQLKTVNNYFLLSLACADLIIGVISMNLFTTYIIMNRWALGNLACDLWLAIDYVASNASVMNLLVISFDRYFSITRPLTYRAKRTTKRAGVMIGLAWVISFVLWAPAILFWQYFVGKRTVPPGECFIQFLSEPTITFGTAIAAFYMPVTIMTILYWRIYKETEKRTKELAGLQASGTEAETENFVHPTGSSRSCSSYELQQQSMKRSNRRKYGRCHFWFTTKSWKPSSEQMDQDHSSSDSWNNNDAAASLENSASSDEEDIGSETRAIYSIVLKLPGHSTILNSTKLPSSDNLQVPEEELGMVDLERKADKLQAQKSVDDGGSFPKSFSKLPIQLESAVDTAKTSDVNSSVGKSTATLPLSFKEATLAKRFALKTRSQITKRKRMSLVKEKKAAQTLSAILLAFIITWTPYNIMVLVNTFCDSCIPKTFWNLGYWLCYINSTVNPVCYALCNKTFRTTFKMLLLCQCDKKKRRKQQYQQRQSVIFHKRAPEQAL

[3] = molecular target: Delta-type opioid receptor (Homo sapiens) (UniProt P41143); assay: Binding affinity to delta opioid receptor (unknown origin) at 10 uM by radioligand displacement assay relative to control
Chain of Delta-type opioid receptor (Homo sapiens) (P41143 whole entry): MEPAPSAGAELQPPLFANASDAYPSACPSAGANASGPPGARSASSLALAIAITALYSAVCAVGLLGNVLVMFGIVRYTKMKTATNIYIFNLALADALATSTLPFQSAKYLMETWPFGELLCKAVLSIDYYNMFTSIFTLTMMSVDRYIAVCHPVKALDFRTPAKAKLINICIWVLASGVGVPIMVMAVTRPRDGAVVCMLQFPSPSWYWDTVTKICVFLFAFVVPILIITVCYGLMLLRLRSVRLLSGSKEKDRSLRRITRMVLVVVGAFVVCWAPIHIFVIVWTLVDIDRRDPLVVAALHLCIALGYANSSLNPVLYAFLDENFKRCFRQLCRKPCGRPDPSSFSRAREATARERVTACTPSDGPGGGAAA

[4] = molecular target: Platelet-derived growth factor receptor (Homo sapiens) (UniProt P09619+P16234); assay: Binding affinity to PDGF receptor (unknown origin) at 10 uM by radioligand displacement assay relative to control; type: protein-complex assay
[5] = molecular target: Adenosine receptor A1 (Homo sapiens) (UniProt P30542); assay: Binding affinity to human adenosine A1 receptor at 10 uM by radioligand displacement assay relative to control
Mus musculus [6] = assay: Toxicity in ICR mouse assessed as effect on locomotor activity measured moved distance per 4 mins at 1 mg/kg, ip after 180 mins by open field test (reference value: 436 125 cm); type: organism-based; set-up: dose 1 mg/kg, route intraperitoneal; settings: in vivo
Mus musculus [7] = assay: Toxicity in ICR mouse assessed as effect on locomotor activity measured moved distance per 4 mins at 1 mg/kg, ip after 120 mins by open field test (reference value: 578 126 cm); type: organism-based; set-up: dose 1 mg/kg, route intraperitoneal; settings: in vivo
Mus musculus [8] = assay: Toxicity in ICR mouse assessed as effect on locomotor activity measured moved distance per 4 mins at 1 mg/kg, ip after 240 mins by open field test (reference value: 398 70 cm); type: organism-based; set-up: dose 1 mg/kg, route intraperitoneal; settings: in vivo
Mus musculus [9] = assay: Antiamnesic activity in ICR mouse scopolamine-induced memory impairment model assessed as increase in retention latency at 10 mg/kg, ip administered 60 mins prior to scopolamine challenge measured after 40 mins by passive avoidance test relative to scopolamine-treated control; type: functional; settings: route intraperitoneal
Mus musculus [10] = assay: Antiamnesic activity in ICR mouse scopolamine-induced memory impairment model assessed as increase in retention latency at 5 mg/kg, ip administered 60 mins prior to scopolamine challenge measured after 40 mins by passive avoidance test in presence of sigma-1 receptor anatagonist NE-100; type: functional, organism-based; set-up: dose 5 mg/kg
Homo sapiens [11] = species on record: Homo sapiens; assay: Binding affinity to human TNFalpha receptor at 10 uM by radioligand displacement assay relative to control
Mus musculus [12] = assay: Toxicity in ip dosed ICR mouse assessed as effect on motor strength measured within 5 secs by traction test; type: organism-based; settings: in vivo, 5 s
Mus musculus [13] = assay: Toxicity in ICR mouse assessed as effect on locomotor activity measured moved distance per 4 mins at 10 mg/kg, ip after 120 mins by open field test (reference value: 578 126 cm); type: organism-based; set-up: dose 10 mg/kg, route intraperitoneal; settings: in vivo
[14] = molecular target: Sigma non-opioid intracellular receptor 1 (Homo sapiens, UniProt Q99720); assay: Displacement of [3H]1,3-di(2-tolyl)guanidine from sigma 1 receptor in human Jurkat cells; type: cell-based
Chain of Sigma non-opioid intracellular receptor 1 (Q99720 whole entry): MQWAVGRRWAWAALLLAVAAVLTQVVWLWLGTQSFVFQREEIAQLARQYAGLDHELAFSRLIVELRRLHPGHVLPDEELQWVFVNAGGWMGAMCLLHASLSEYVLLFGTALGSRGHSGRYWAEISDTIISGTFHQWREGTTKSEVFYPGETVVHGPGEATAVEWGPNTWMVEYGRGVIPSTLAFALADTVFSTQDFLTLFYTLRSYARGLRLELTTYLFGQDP

[15] = molecular target: Neurotensin receptor type 1 (Homo sapiens) (UniProt P30989); assay: Binding affinity to NTS1 receptor (unknown origin) at 10 uM by radioligand displacement assay relative to control
Chain of Neurotensin receptor type 1 (Homo sapiens) (P30989 whole entry): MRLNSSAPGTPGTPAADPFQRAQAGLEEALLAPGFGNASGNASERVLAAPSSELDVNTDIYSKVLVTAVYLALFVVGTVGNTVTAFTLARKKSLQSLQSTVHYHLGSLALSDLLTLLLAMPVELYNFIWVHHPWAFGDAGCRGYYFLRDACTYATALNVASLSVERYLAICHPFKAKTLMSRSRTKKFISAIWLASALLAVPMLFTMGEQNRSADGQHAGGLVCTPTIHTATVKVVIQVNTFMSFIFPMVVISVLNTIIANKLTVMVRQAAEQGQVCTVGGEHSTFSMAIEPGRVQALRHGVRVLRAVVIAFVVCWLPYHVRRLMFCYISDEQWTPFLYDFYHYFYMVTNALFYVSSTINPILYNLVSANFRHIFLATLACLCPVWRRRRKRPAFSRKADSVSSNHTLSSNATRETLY

Homo sapiens [16] = species on record: Homo sapiens; assay: Binding affinity to L-type calcium channel verapamil binding site (unknown origin) at 10 uM by radioligand displacement assay relative to control
Mus musculus [17] = assay: Antiamnesic activity in ICR mouse scopolamine-induced memory impairment model assessed as increase in retention latency at 5 mg/kg, ip administered 60 mins prior to scopolamine challenge measured after 40 mins by passive avoidance test relative to scopolamine-treated control; type: functional; settings: route intraperitoneal
Homo sapiens [18] = species on record: Homo sapiens; assay: Binding affinity to bombesin receptor (unknown origin) at 10 uM by radioligand displacement assay relative to control
[19] = molecular target: B2 bradykinin receptor (Homo sapiens) (UniProt P30411); assay: Binding affinity to human bradykinin B2 receptor at 10 uM by radioligand displacement assay relative to control
Chain of B2 bradykinin receptor (Homo sapiens) (P30411 whole entry): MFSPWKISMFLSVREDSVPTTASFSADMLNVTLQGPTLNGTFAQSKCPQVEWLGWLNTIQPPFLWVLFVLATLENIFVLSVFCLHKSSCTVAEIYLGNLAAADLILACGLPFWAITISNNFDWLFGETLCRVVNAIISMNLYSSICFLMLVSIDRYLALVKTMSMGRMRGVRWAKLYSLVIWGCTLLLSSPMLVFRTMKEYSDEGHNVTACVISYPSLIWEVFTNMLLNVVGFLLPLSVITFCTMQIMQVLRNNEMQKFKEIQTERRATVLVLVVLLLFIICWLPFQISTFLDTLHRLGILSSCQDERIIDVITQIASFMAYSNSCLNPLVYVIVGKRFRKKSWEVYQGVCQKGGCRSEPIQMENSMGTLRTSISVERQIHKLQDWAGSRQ

[20] = molecular target: D(4) dopamine receptor (Homo sapiens) (UniProt P21917); assay: Binding affinity to human dopamine D4.4 receptor at 10 uM by radioligand displacement assay relative to control
Chain of D(4) dopamine receptor (Homo sapiens) (P21917 whole entry): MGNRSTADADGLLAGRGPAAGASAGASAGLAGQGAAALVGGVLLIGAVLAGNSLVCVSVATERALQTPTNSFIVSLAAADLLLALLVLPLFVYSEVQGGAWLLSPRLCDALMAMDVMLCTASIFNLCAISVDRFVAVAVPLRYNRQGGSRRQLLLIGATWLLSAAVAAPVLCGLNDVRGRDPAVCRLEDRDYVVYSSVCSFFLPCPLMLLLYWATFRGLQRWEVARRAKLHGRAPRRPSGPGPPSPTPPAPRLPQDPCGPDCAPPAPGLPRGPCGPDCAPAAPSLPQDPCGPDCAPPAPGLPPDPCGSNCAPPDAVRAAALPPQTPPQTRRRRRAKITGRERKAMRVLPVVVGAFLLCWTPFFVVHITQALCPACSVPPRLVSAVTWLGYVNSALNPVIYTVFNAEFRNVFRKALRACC

Mus musculus [21] = assay: Toxicity in ICR mouse assessed as effect on locomotor activity measured moved distance per 4 mins at 100 mg/kg, ip after 30 mins by open field test (reference value: 1124 121 cm); type: organism-based; set-up: dose 100 mg/kg, route intraperitoneal; settings: in vivo
[22] = molecular target: Muscarinic acetylcholine receptor M1 (Homo sapiens) (UniProt P11229); assay: Binding affinity to human muscarinic M1 receptor at 10 uM by radioligand displacement assay relative to control
Chain of Muscarinic acetylcholine receptor M1 (Homo sapiens) (P11229 whole entry): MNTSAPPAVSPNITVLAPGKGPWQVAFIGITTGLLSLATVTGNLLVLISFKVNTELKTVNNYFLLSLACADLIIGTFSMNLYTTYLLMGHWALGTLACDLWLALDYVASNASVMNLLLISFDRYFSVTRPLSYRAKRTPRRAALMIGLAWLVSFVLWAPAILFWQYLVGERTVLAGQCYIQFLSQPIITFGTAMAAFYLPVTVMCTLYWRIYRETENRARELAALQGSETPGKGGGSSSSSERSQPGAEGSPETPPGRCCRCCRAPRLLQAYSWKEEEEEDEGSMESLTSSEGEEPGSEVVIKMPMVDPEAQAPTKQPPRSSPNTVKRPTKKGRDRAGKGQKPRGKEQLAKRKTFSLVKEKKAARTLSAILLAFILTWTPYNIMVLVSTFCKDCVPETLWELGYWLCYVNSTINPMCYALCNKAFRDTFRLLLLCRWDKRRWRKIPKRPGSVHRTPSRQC

[23] = molecular target: 5-hydroxytryptamine receptor 1A (Homo sapiens) (UniProt P08908); assay: Binding affinity to human 5-HT1A receptor at 10 uM by radioligand displacement assay relative to control
Mus musculus [24] = assay: Toxicity in ICR mouse assessed as effect on locomotor activity measured moved distance per 4 mins at 10 mg/kg, ip after 180 mins by open field test (reference value: 436 125 cm); type: organism-based; set-up: dose 10 mg/kg, route intraperitoneal; settings: in vivo
[25] = molecular target: 5-hydroxytryptamine receptor 3A (Homo sapiens) (UniProt P46098); assay: Binding affinity to human 5-HT3 receptor at 10 uM by radioligand displacement assay relative to control
Chain of 5-hydroxytryptamine receptor 3A (Homo sapiens) (P46098 whole entry): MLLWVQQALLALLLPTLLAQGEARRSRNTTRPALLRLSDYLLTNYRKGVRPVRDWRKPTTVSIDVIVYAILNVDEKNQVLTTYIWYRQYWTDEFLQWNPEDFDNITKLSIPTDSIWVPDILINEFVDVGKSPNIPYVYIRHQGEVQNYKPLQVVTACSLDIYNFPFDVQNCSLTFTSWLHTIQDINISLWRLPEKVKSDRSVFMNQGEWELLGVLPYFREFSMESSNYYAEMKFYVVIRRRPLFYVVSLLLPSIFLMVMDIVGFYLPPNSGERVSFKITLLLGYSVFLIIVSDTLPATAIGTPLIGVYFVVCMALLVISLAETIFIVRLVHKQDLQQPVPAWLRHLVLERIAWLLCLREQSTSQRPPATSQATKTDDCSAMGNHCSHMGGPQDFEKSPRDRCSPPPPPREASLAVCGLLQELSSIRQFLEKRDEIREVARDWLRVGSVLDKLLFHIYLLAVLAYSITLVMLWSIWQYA

Homo sapiens [26] = species on record: Homo sapiens; assay: Binding affinity to P2Y receptor (unknown origin) at 10 uM by radioligand displacement assay relative to control
Mus musculus [27] = assay: Toxicity in ICR mouse assessed as effect on locomotor activity measured moved distance per 4 mins at 100 mg/kg, ip after 60 mins by open field test (reference value: 623 136 cm); type: organism-based; set-up: dose 100 mg/kg, route intraperitoneal; settings: in vivo
[28] = molecular target: Histamine H1 receptor (Homo sapiens) (UniProt P35367); assay: Binding affinity to human histamine H1 receptor at 10 uM by radioligand displacement assay relative to control
Chain of Histamine H1 receptor (Homo sapiens) (P35367 whole entry): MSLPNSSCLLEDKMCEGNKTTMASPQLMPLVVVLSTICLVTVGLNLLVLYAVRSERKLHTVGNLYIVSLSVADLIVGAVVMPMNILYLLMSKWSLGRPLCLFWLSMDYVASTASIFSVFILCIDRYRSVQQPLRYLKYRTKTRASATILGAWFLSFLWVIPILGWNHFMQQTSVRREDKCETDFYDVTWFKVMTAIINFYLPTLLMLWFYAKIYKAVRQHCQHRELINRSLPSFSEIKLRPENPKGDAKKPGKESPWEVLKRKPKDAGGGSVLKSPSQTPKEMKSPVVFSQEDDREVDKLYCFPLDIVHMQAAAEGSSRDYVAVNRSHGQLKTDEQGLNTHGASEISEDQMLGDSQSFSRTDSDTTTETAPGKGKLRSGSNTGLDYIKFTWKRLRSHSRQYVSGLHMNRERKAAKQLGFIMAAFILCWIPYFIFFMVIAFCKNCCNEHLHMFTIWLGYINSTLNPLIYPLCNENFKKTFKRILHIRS

[29] = molecular target: Vasopressin V1a receptor (Homo sapiens) (UniProt P37288); assay: Binding affinity to human vasopressin V1a receptor at 10 uM by radioligand displacement assay relative to control
[30] = molecular target: Somatostatin receptor type 1 (Homo sapiens) (UniProt P30872); assay: Binding affinity to Somatostatin receptor type 1 (unknown origin) at 10 uM by radioligand displacement assay relative to control
Mus musculus [31] = assay: Cognitive enhancing effect in ICR mouse assessed as increase in retention latency at 10 mg/kg, ip administered 60 mins prior to testing measured after 24 hrs by passive avoidance test relative to control; type: functional; settings: route intraperitoneal
[32] = molecular target: Nociceptin receptor (Homo sapiens) (UniProt P41146); assay: Binding affinity to ORL1 receptor (unknown origin) at 10 uM by radioligand displacement assay relative to control
Chain of Nociceptin receptor (Homo sapiens) (P41146 whole entry): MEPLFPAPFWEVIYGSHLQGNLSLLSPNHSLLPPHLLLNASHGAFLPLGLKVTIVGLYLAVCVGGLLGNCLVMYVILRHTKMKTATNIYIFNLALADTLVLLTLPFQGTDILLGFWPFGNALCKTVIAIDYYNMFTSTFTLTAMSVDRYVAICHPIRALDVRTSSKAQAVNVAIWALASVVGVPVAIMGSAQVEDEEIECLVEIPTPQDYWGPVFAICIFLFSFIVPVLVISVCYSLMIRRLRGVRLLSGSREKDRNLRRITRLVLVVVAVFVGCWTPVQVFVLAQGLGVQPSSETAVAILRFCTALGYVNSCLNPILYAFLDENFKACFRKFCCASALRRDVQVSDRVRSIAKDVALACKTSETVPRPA

[33] = molecular target: Calcitonin gene-related peptide type 1 receptor (Homo sapiens) (UniProt Q16602); assay: Binding affinity to human CGRP receptor at 10 uM by radioligand displacement assay relative to control
Chain of Calcitonin gene-related peptide type 1 receptor (Homo sapiens) (Q16602 whole entry): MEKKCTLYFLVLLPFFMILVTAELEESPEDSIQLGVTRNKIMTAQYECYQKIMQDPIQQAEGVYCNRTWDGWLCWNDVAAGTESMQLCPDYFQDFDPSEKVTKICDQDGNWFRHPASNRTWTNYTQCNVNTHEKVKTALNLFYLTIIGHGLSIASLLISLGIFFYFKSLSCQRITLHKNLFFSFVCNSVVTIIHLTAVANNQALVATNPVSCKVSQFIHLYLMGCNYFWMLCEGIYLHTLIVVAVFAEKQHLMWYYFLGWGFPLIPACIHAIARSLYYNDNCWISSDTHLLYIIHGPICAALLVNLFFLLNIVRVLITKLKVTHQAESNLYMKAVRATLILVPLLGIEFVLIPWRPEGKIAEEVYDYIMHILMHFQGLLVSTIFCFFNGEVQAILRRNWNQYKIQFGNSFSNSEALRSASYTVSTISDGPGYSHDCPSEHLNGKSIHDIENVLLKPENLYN

[34] = molecular target: 5-hydroxytryptamine receptor 1B (Homo sapiens) (UniProt P28222); assay: Binding affinity to 5-HT1B receptor (unknown origin) at 10 uM by radioligand displacement assay relative to control
Mus musculus [35] = assay: Toxicity in ICR mouse assessed as effect on locomotor activity measured moved distance per 4 mins at 1 mg/kg, ip after 60 mins by open field test (reference value: 623 136 cm); type: organism-based; set-up: dose 1 mg/kg, route intraperitoneal; settings: in vivo
[36] = molecular target: Substance-K receptor (Homo sapiens) (UniProt P21452); assay: Binding affinity to human NK2 receptor at 10 uM by radioligand displacement assay relative to control

SMILES: C[C@H]1[C@@H](c2ccccc2)CC(=O)N1CC(N)=O
- inhibition [1]: -2%
- inhibition [2]: -7%
- inhibition [3]: -4%
- inhibition [4]: -6%
- inhibition [5]: 2%
- Activity (Mus musculus [6]): 559 cm
- Activity (Mus musculus [7]): 688 cm
- Activity (Mus musculus [8]): 626 cm
- Activity (Mus musculus [9]): 209%
- Activity (Mus musculus [10]): inactive
- inhibition (Homo sapiens [11]): -3%
- ED50 (Mus musculus [12]): 595 mg/kg
- Activity (Mus musculus [13]): 472 cm
- IC50 [14]: 43 nM
- inhibition [15]: -3%
- inhibition (Homo sapiens [16]): -1%
- Activity (Mus musculus [17]): 237%
- inhibition (Homo sapiens [18]): -5%
- inhibition [19]: 3%
- inhibition [20]: -3%
- Activity (Mus musculus [21]): 1076 cm
- inhibition [22]: -4%
- inhibition [23]: -4%
- Activity (Mus musculus [24]): 406 cm
- inhibition [25]: -1%
- inhibition (Homo sapiens [26]): -4%
- Activity (Mus musculus [27]): 648 cm
- inhibition [28]: -7%
- inhibition [29]: 2%
- inhibition [30]: -5%
- Activity (Mus musculus [31]): 211%
- inhibition [32]: 4%
- inhibition [33]: 1%
- inhibition [34]: 0%
- Activity (Mus musculus [35]): 871 cm
- inhibition [36]: -3%
